In ChEMBL document CHEMBL6078646, “Target Ligand Separation and Identification of Isoforsythiaside as a Histone Lysine-Specific Demethylase 1 Covalent Inhibitor Against Breast Cancer Metastasis” (J Med Chem, 2024):
Active and inactive are the calls of the source. The calls are words filed in the database; no cut-off is given here.

Experiments:
[1] = molecular target: T1, Lysine-specific histone demethylase 1A (Homo sapiens, UniProt O60341); test: Inhibition of recombinant His-tagged LSD1 (157 to 852 residues) (unknown origin) expressed in Escherichia coli BL21 (DE3) cells using H3K4me2 peptide as substrate incubated for 30 mins by fluorescence microplate reader analysis
[2] = Tmax in male Sprague-Dawley rat at 10 mg/kg, ip measured at 0 to 1440 mins by LC-MS/MS analysis; assay type: ADME, organism-based; conditions: in vivo, time 0-1440 min
[3] = Toxicity in female Balb/c mouse assessed as effect on RBC level at 50 mg/kg, ip administered every other day for 7 times; assay type: organism-based; conditions: in vivo
[4] = Toxicity in female Balb/c mouse assessed as effect on monocytes level at 50 mg/kg, ip administered every other day for 7 times; assay type: organism-based; conditions: in vivo
[5] = Toxicity in female Balb/c mouse assessed as effect on granulocyte level at 50 mg/kg, ip administered every other day for 7 times; assay type: organism-based; conditions: in vivo
[6] = Toxicity in female Balb/c mouse assessed as effect on BUN level at 50 mg/kg, ip administered every other day for 7 times; assay type: organism-based; conditions: in vivo
[7] = Toxicity in female Balb/c mouse assessed as effect on AST level at 50 mg/kg, ip administered every other day for 7 times; assay type: organism-based; conditions: in vivo
[8] = Toxicity in female Balb/c mouse assessed as effect on creatine kinase level at 50 mg/kg, ip administered every other day for 7 times; assay type: organism-based; conditions: in vivo
[9] = Toxicity in female Balb/c mouse assessed as histological changes in liver at 50 mg/kg, ip administered every other day for 7 times by H and E staining based analysis; assay type: organism-based; conditions: in vivo
[10] = Toxicity in female Balb/c mouse assessed as histological changes in lung at 50 mg/kg, ip administered every other day for 7 times by H and E staining based analysis; assay type: organism-based; conditions: in vivo
[11] = Retention time of the compound by HPLC-MS/MS analysis; assay type: physicochemical
MCF7 = test: Cytotoxicity against human MCF7 cells assessed as cell viability at 0 to 100 uM incubated for 24 hrs by MTT assay; assay type: functional; conditions: dose 0-100 µM
MDA-MB-231 [12] = test: Antimetastatic activity against human MDA-MB-231 cells expressing luciferase xenografted in female Balb/c nude mouse assessed as reduction in fluorescence intensity in lungs at 12 mg/kg, ip administered every 3 days and measured on day 15 by bioluminescence imaging analysis relative to control; assay type: functional; design: scale not given: the % may be the effect or the level left; conditions: time 15 day
MDA-MB-231 [13] = test: Antimetastatic activity against human MDA-MB-231 cells expressing luciferase xenografted in female Balb/c nude mouse assessed as reduction in number of metastatic nodules in the lung at 25 mg/kg, ip administered every 3 days and measured after 30 days by H and E staining based histopathological analysis relative to control; assay type: functional; design: scale not given: the % may be the effect or the level left; conditions: time 30 day
MDA-MB-231 [14] = test: Antimetastatic activity against human MDA-MB-231-Luc cells xenografted in female Balb/c nude mouse assessed as smaller metastatic nodules in lung at 12 to 50 mg/kg, ip administered every 3 days and measured after 30 days by H and E staining based analysis; assay type: functional, organism-based; conditions: dose 12-50 mg/kg, time 30.0 day
MDA-MB-231 [15] = test: Antitumor activity against human MDA-MB-231 cells expressing luciferase xenografted in female Balb/c nude mouse assessed as increase in body weight at 12 to 50 mg/kg, ip administered every 3 days and measured after 33 days; assay type: functional, organism-based; conditions: dose 12-50 mg/kg, time 33.0 day
[16] = molecular target: T1, Lysine-specific histone demethylase 1A; test: Binding affinity to LSD1 (unknown origin) assessed as protection of pronase-dependent degradation at 15 to 75 uM preincubated for 30 mins followed by pronase addition and measured after 30 mins by DARTS assay; conditions: dose 15-75 µM, time 60.0 min
[17] = molecular target: T1, Lysine-specific histone demethylase 1A; test: Inhibition of LSD1 in human MDA-MB-231 cells assessed as increase in H3K4me1 accumulation by Western blotting analysis; assay type: cell-based; conditions: dose 0-32 µM
MDA-MB-231 [18] = test: Effect on H3K4me2 protein expression in LSD1 knockout human MDA-MB-231 cells at 16 uM by Western blot analysis; assay type: functional, cell-based
MDA-MB-231 [19] = test: Effect on CD86 protein expression in LSD1 knockout human MDA-MB-231 cells at 16 uM by Western blot analysis; assay type: functional, cell-based
MDA-MB-231 [20] = test: Antimetastatic activity against LSD1 knockout human MDA-MB-231 cells xenografted in wild type zebrafish yolk sac assessed as inhibition of cell migration at 12.5 mg/L incubated for 3 days by fluorescence microscopic analysis; assay type: functional, cell-based; conditions: time 3.0 day
MDA-MB-231 [21] = test: Antimetastatic activity against LSD1 knockout human MDA-MB-231 cells xenografted in mouse model assessed as reduction in number of metastatic nodules in the lung measured after 27 days; assay type: functional, cell-based; conditions: time 27.0 day
Homo sapiens [22] = species: Homo sapiens; test: Inhibition of recombinant LSD1 Ser817A mutant (unknown origin)
Homo sapiens [23] = species: Homo sapiens; test: Binding affinity to recombinant LSD1 Ser817A mutant (unknown origin) assessed as protection of pronase-dependent degradation at 15 to 75 uM preincubated for 30 mins followed by pronase addition and measured after 30 mins by DARTS assay; conditions: dose 15-75 µM, time 60.0 min
Homo sapiens [24] = species: Homo sapiens; test: Binding affinity to recombinant LSD1 Ser817A mutant (unknown origin) assessed as thermal stability at 50 uM preincubated for 30 mins followed by incubation under 37 to 52 degreeC for 5 mins by CETSA; conditions: time 35.0 min
MDA-MB-231 [25] = test: Induction of LSD1 degradation in human MDA-MB-231 cells incubated for 12 hrs by Western blotting analysis; assay type: cell-based
[26] = molecular target: T1, Lysine-specific histone demethylase 1A; test: Stabilization of LSD1 in human MDA-MB-231 cells incubated for 24 hrs in presence of cycloheximide by Western blotting analysis; assay type: cell-based
MDA-MB-231 [27] = test: Upregulation of RBMS3 protein expression in human MDA-MB-231 cells at 4 to 32 uM by Western blotting analysis; assay type: functional, cell-based; conditions: dose 4-32 µM
MDA-MB-231 [28] = test: Inhibition of Twist1 production in human MDA-MB-231 cells by Western blotting analysis; assay type: functional, cell-based
MDA-MB-231 [29] = test: Inhibition of MMP2 production in human MDA-MB-231 cells by Western blotting analysis; assay type: functional, cell-based; conditions: dose 0-32 µM
[30] = Toxicity in female Balb/c nude mouse xenografted with human MDA-MB-231 cells expressing luciferase assessed as appearance of heart lesions at 12 to 50 mg/kg, ip administered every 3 days and measured after 30 days by H and E staining based analysis; assay type: organism-based; conditions: in vivo, 720 h, dose 12-50 mg/kg, time 30 day
[31] = Toxicity in female Balb/c nude mouse xenografted with human MDA-MB-231 cells expressing luciferase assessed as appearance of liver lesions at 12 to 50 mg/kg, ip administered every 3 days and measured after 30 days by H and E staining based analysis; assay type: organism-based; conditions: in vivo, 720 h, dose 12-50 mg/kg, time 30 day
[32] = Toxicity in female Balb/c nude mouse xenografted with human MDA-MB-231 cells expressing luciferase assessed as appearance of spleen lesions at 12 to 50 mg/kg, ip administered every 3 days and measured after 30 days by H and E staining based analysis; assay type: organism-based; conditions: in vivo, 720 h, dose 12-50 mg/kg, time 30 day
[33] = molecular target: T1, Lysine-specific histone demethylase 1A; test: Inhibition of LSD1 (unknown origin) activity measured after 80-fold dilution by dilution assay
[34] = molecular target: T1, Lysine-specific histone demethylase 1A; test: Non-competitive inhibition of LSD1 (unknown origin) in presence of FAD by Lineweaver-Burk plot analysis
MDA-MB-231 [35] = test: Upregulation of H3K4me2 protein expression in human MDA-MB-231 cells by Western blot analysis; assay type: functional, cell-based; conditions: dose 4-32 µM

## C[C@@H]1O[C@H](OC[C@H]2O[C@@H](OCCc3ccc(O)c(O)c3)[C@H](O)[C@@H](OC(=O)/C=C/c3ccc(O)c(O)c3)[C@@H]2O)[C@H](O)[C@H](O)[C@H]1O
[1]
  IC50: 1580 nM
[2]
  Tmax: 1.33 h
[3]
  Activity: Non-toxic
[4]
  Activity: Non-toxic
[5]
  Activity: Non-toxic
[6]
  Activity: Non-toxic
[7]
  Activity: Non-toxic
[8]
  Activity: Non-toxic
[9]
  Activity: Non-toxic
[10]
  Activity: Non-toxic
[11]
  Retention_time: 18.4 min
MCF7
  Activity: >90%
MDA-MB-231 [12]
  Activity: 32.9%
MDA-MB-231 [13]
  Activity: 33.3%
MDA-MB-231 [14]
  Activity: Active
MDA-MB-231 [15]
  Activity: Active; Slight Increase In Body Weight Observed
[16]
  Activity: Active
[17]
  inhibition: Dose-dependent-effect
MDA-MB-231 [18]
  Activity: inactive
MDA-MB-231 [19]
  Activity: inactive
MDA-MB-231 [20]
  Activity: Active; No Significant Difference With Lsd1 Knockout Control Group
MDA-MB-231 [21]
  Activity: Active
Homo sapiens [22]
  inhibition: inactive
Homo sapiens [23]
  Activity: inactive
Homo sapiens [24]
  Activity: inactive
MDA-MB-231 [25]
  Activity: Active
[26]
  Activity: Active
MDA-MB-231 [27]
  Activity: Active
MDA-MB-231 [28]
  inhibition: Dose-dependent-effect
MDA-MB-231 [29]
  inhibition: Dose-dependent-effect
[30]
  Activity: Non-toxic
[31]
  Activity: Non-toxic
[32]
  Activity: Non-toxic
[33]
  inhibition: Active; Compound Exerts Inhibition In An Irreversible Manner
[34]
  inhibition: Active
MDA-MB-231 [35]
  Activity: Dose-dependent-effect
